The values that follow come from ChEMBL document CHEMBL2413076, “Synthesis and biological evaluation of ursolic acid-triazolyl derivatives as potential anti-cancer agents” (Eur J Med Chem, 2013).

The structures appear in SMILES notation.

In data set [1] the test system is HCT-116. The data set is described as follows: Growth inhibition of human HCT116 cells assessed as dead cells at 20 uM after 48 hrs by sulforhodamine-B assay relative to control. Type of data set: functional. The following applies: HCT-116, 48 h, read-out: GI. On the technique in general: In SRB staining, fixed cells bind dye roughly in proportion to their protein.

The test system of data set [2] is THP-1. The data set is described as follows: Growth inhibition of human THP1 cells assessed as dead cells at 20 uM after 48 hrs by sulforhodamine-B assay relative to control. In kind it is functional. The following applies: THP-1, 48 h, read-out: GI.
Data set [3] concerns A549. The data set can be described thus: Growth inhibition of human A549 cells assessed as dead cells at 20 uM after 48 hrs by sulforhodamine-B assay relative to control. In kind it is functional. The following applies: A549, 48 h, read-out: GI.
Data set [4] can be described thus: Growth inhibition of human FR2 cells after 48 hrs by sulforhodamine-B assay. Type of data set: cell-based. To be noted: FR2, 48 h.
Data set [5] concerns THP-1. The data set is described as follows: Growth inhibition of human THP1 cells after 48 hrs by sulforhodamine-B assay. Type of data set: functional, cell-based. To be noted: THP-1, 48 h.
Data set [6] deals with MCF7. The data set can be described thus: Growth inhibition of human MCF7 cells after 48 hrs by sulforhodamine-B assay. To be noted: MCF7, 48 h. In kind it is functional, cell-based.
The test system of data set [7] is HCT-116. The data set is described as follows: Growth inhibition of human HCT116 cells after 48 hrs by sulforhodamine-B assay. In kind it is functional, cell-based. To be noted: HCT-116, 48 h.
Data set [8] relates to A549. The data set is described as follows: Growth inhibition of human A549 cells after 48 hrs by sulforhodamine-B assay. Type of data set: functional, cell-based. The following applies: A549, 48 h.
Data set [9] is described as follows: Growth inhibition of human FR2 cells assessed as dead cells at 10 uM after 48 hrs by sulforhodamine-B assay relative to control. Type of data set: cell-based. The following applies: read-out: GI.
Data set [10] has as its system THP-1. The data set can be described thus: Growth inhibition of human THP1 cells assessed as dead cells at 10 uM after 48 hrs by sulforhodamine-B assay relative to control. In kind it is functional. To be noted: THP-1, 48 h, read-out: GI.
Data set [11] has as its system HCT-116. The data set can be described thus: Growth inhibition of human HCT116 cells assessed as dead cells at 10 uM after 48 hrs by sulforhodamine-B assay relative to control. In kind it is functional. To be noted: HCT-116, 48 h, read-out: GI.
For data set [12], the system named is MCF7. The data set can be described thus: Growth inhibition of human MCF7 cells assessed as dead cells at 10 uM after 48 hrs by sulforhodamine-B assay relative to control. The following applies: MCF7, 48 h, read-out: GI. In kind it is functional.
Data set [13] has as its system A549. The data set can be described thus: Growth inhibition of human A549 cells assessed as dead cells at 10 uM after 48 hrs by sulforhodamine-B assay relative to control. In kind it is functional. The following applies: A549, 48 h, read-out: GI.
Data set [14] in a line: Growth inhibition of human FR2 cells assessed as dead cells at 50 uM after 48 hrs by sulforhodamine-B assay relative to control. Type of data set: cell-based. The following applies: read-out: GI.
In data set [15] the test system is A549. The data set is described as follows: Growth inhibition of human A549 cells assessed as dead cells at 50 uM after 48 hrs by sulforhodamine-B assay relative to control. In kind it is functional. To be noted: A549, 48 h, read-out: GI.
Data set [16] has as its system MCF7. The data set is described as follows: Growth inhibition of human MCF7 cells assessed as dead cells at 50 uM after 48 hrs by sulforhodamine-B assay relative to control. Type of data set: functional. To be noted: MCF7, 48 h, read-out: GI.
The test system of data set [17] is HCT-116. The data set can be described thus: Growth inhibition of human HCT116 cells assessed as dead cells at 50 uM after 48 hrs by sulforhodamine-B assay relative to control. Type of data set: functional. To be noted: HCT-116, 48 h, read-out: GI.
For data set [18], the system named is THP-1. The data set is described as follows: Growth inhibition of human THP1 cells assessed as dead cells at 50 uM after 48 hrs by sulforhodamine-B assay relative to control. Type of data set: functional. The following applies: THP-1, 48 h, read-out: GI.
Data set [19] relates to MCF7. The data set can be described thus: Growth inhibition of human MCF7 cells assessed as dead cells at 1 uM after 48 hrs by sulforhodamine-B assay relative to control. Type of data set: functional. To be noted: MCF7, 48 h, read-out: GI.
Data set [20] has as its system A549. The data set is described as follows: Growth inhibition of human A549 cells assessed as dead cells at 1 uM after 48 hrs by sulforhodamine-B assay relative to control. Type of data set: functional. The following applies: A549, 48 h, read-out: GI.

On to `O=c1[nH]cc(F)c(=O)[nH]1` [FLUOROURACIL], for which the inhibition of growth at 20 µM with HCT-116 [1] amounted to 76%; in the data set with THP-1 [2], 96%; in the data set with A549 [3], 86%.

As for `Cc1ccc(-n2cc(COC(=O)[C@]34CC[C@@H](C)[C@H](C)[C@H]3C3=CC[C@@H]5[C@@]6(C)CCC(=O)C(C)(C)[C@@H]6CC[C@@]5(C)[C@]3(C)CC4)nn2)cc1C`, the concentration for half-maximal inhibition (IC50) in data set [4] is 10 µM; in the data set with THP-1 [5] it was 900 nM; with MCF7 [6], 5.5 µM; in the data set with HCT-116 [7], less than 100 nM; in the data set on A549 [8], 0.5 µM. Further, in data set [9], the inhibition at 48 h, 10 µM was 68%. Moreover, the inhibition of growth at 10 µM amounted to 82% in the data set on THP-1 [10], 91% in the data set with HCT-116 [11], 69% with MCF7 [12] and 74% with A549 [13]. The inhibition at 48 h, 50 µM in data set [14] is 85%. The inhibition of growth at 50 µM in the data set on A549 [15] turned out to be 93%; in the data set with MCF7 [16] it was 99%; in the data set on HCT-116 [17], 99%; with THP-1 [18], 94%.

Turning to `C#CCOC(=O)[C@]12CC[C@@H](C)[C@H](C)[C@H]1C1=CC[C@@H]3[C@@]4(C)CCC(=O)C(C)(C)[C@@H]4CC[C@@]3(C)[C@]1(C)CC2`, the 50% inhibitory concentration (IC50) in [4] stood at 24 µM; in the data set with THP-1 [5], 13000 nM; in the data set with MCF7 [6] it was 56 µM; in the data set on HCT-116 [7] it was 2300 nM; with A549 [8], 15 µM. The inhibition at 48 h, 10 µM in data set [9] is 33%. The inhibition of growth at 10 µM in the data set with THP-1 [10] worked out at 42%; in the data set on HCT-116 [11], 74%; in the data set with MCF7 [12], 22%; with A549 [13], 50%. In addition, the inhibition at 48 h, 50 µM in data set [14] turned out to be 86%. Moreover, the inhibition of growth at 50 µM turned out to be 78% in the data set on A549 [15], 42% in the data set on MCF7 [16], 96% in the data set on HCT-116 [17] and 88% with THP-1 [18].

As to `C[C@H]1[C@H](C)CC[C@]2(C(=O)OCc3cn(-c4ccccc4Cl)nn3)CC[C@]3(C)C(=CC[C@@H]4[C@@]5(C)CCC(=O)C(C)(C)[C@@H]5CC[C@]43C)[C@H]12`, the IC50 in data set [4] was greater than 50 µM; in the data set with THP-1 [5] it was less than 100 nM; in the data set with MCF7 [6] it was less than 0.1 µM; in the data set on HCT-116 [7], 9100 nM; in the data set with A549 [8] it was 0.15 µM. Moreover, in [9], the inhibition at 48 h, 10 µM turned out to be 9%. Moreover, the inhibition of growth at 10 µM was determined as 80% with THP-1 [10], 54% in the data set on HCT-116 [11], 81% with MCF7 [12] and 77% in the data set with A549 [13]. For the same molecule, the inhibition at 48 h, 50 µM in data set [14] came to 35%. The inhibition of growth at 50 µM in the data set with A549 [15] worked out at 91%; with MCF7 [16], 95%; with HCT-116 [17] it was 93%; in the data set with THP-1 [18] it was 96%.

In the case of `C[C@H]1[C@H](C)CC[C@]2(C(=O)OCc3cn(-c4ccc(F)cc4F)nn3)CC[C@]3(C)C(=CC[C@@H]4[C@@]5(C)CCC(=O)C(C)(C)[C@@H]5CC[C@]43C)[C@H]12`, the half-inhibitory concentration (IC50) in data set [4] was 44 µM; in the data set with THP-1 [5] it was 1100 nM; with MCF7 [6], 30 µM; in the data set with HCT-116 [7], 470 nM; with A549 [8], 6.4 µM. The inhibition at 48 h, 10 µM in data set [9] was found to be 2%. For the same molecule, the inhibition of growth at 10 µM with THP-1 [10] is 82%; in the data set with HCT-116 [11], 69%; with MCF7 [12], 17%; with A549 [13], 57%. The inhibition at 48 h, 50 µM in [14] was found to be 78%. Also, the inhibition of growth at 50 µM in the data set with A549 [15] was 64%; in the data set on MCF7 [16], 73%; in the data set on HCT-116 [17] it was 91%; with THP-1 [18], 86%.

As for `CO[C@@]12[C@H](COC(N)=O)C3=C(C(=O)C(C)=C(N)C3=O)N1C[C@@H]1N[C@@H]12` [MITOMYCIN], the figures for the inhibition of growth at 1 µM with MCF7 [19] and in the data set on A549 [20] were 82% and 70%, respectively.

For orientation: IC50 means the midpoint of a concentration-inhibition curve. The low end stands for higher potency, the high end for lower potency.
